Experiments:
CDK1/Cyclin B1 = CDK1/Cyclin B1 (Homo sapiens (Human), UniProt P06493); test: CDK1/Cyclin B1 ADP-Glo Kinase Assay; format: biochemical; settings: ADP-Glo, 80 uM ATP; read-out: CDK1 Cyclin B1 IC50
Procedure: CDK1/Cyclin B1 ADP-Glo Kinase Assay
(§1) The purpose of CDK1/Cyclin B1 assay is to evaluate the inhibition (% inhibition and IC50 values) of small molecule inhibitors by using a Luminescent based ADP-Glo assay. CDK1/Cyclin B1 catalyzes the production of ADP from ATP. ADP-Glo assay monitors ADP producing biochemical reactions. ADP-Glo is performed in 2 steps upon completion of kinase reaction: a combined termination of kinase reaction and depletion of remaining ATP in the first step, and conversion of generated ADP to ATP and the newly produced ATP to light output using luciferase/luciferin reaction in the second step. The luminescent signal generated is proportional to the ADP concentration produced and is correlated with the kinase activity. CDK1/Cyclin B1 was purchased from Carna (Cat 04-102). […] The assay was initiated with the addition of ATP-containing substrate solution, following a 30-minute pre-incubation of enzyme and inhibitor at room temperature in the reaction mixture. The reaction was stopped after 90 minutes at room temperature by the addition of 10 uL of ADP-GLO Reagent. After a 90 minute incubation, 20 uL of Kinase Detection Reagent was added. Samples were incubated for 40 minutes, after which plate well luminescence was measured on a Envision microplate reader. The IC50 determinations were made from a plot of the fractional velocity as a function of inhibitor concentration fit to the 4 parameters IC50 equation.

CDK2/Cyclin E1 = CDK2/Cyclin E1 (Homo sapiens (Human), UniProt P24941); test: CDK2/Cyclin E1 Full length ADP-Glo Kinase Assay; format: biochemical; settings: 20 uM ATP, read-out: CDK2/ CyclinE1 IC50
Procedure: CDK2/Cyclin E1 Full length ADP-Glo Kinase Assay
as §1, with “of CDK2/Cyclin E1” for “of CDK1/Cyclin B1”, “assay. CDK2/Cyclin E1 full length” for “assay. CDK1/Cyclin B1”, “activity. CDK2/Cyclin E1” for “activity. CDK1/Cyclin B1”, “from Eurofins” for “from Carna”, “(Cat 14-475M).” for “(Cat 04-102).”

CDK4/Cyclin D1 = CDK4/Cyclin D1 (Homo sapiens (Human), UniProt P11802); test: CDK4/Cyclin D1 CHEF Assay (AQT0258 peptide); format: biochemical; settings: 200 uM ATP, read-out: CDK4/ CyclinD1 AQT IC50
Description: CDK4/Cyclin D1 CHEF Assay
The purpose of CDK4/Cyclin D1 assay is to evaluate the inhibition (% inhibition and IC50 values) of small molecule inhibitors by using a Chelation-Enhance Fluorescence (CHEF) assay. In a CHEF assay, phosphorylation of a peptide substrate results in proportional increase in fluorescence. CHEF kinase assay use peptide substrates containing a synthetic alpha-amino acid with a side chain bearing an 8-hydroxyquinoline derivative (sulfonamido-oxide, Sox). Upon phosphorylation of a nearby serine, threonine or tyrosine and in the presence of Mg(II), the spectral properties of the Sox residue are altered, emitting 485 nm wavelength light when excited with a 360 nm wavelength light source. CDK4/Cyclin D1 catalyzes the phosphoryl transfer to the SOX-labeled substrate peptide AQT0258 from Assayquant Technologies. […] The reaction was initiated with the addition of substrate solution, following a 30-minute pre-incubation of enzyme and inhibitor at 22° C. in the reaction mix. Reactions were allowed to proceed for 3 hrs at 22° C., followed by fluorescence read of the reaction. The IC50 determinations were made from a plot of the fractional velocity as a function of inhibitor concentration fit to the 4 parameters IC50 equation.

CDK6/Cyclin D3 = CDK6/Cyclin D3 (Homo sapiens (Human), UniProt Q00534); test: CDK6/Cyclin D3 ADP-Glo Kinase Assay; format: biochemical; settings: 100 uM ATP, read-out: CDK6/ CyclinD3 IC50
Procedure: CDK6/Cyclin D3 ADP-Glo Kinase Assay
The purpose of the CDK6/Cyclin D3 assay is to evaluate the inhibition (% inhibition and IC50 values) in the presence of small molecule inhibitors by using a Luminescent based ADP-Glo assay. CDK6/Cyclin D3 catalyzes the production of ADP from ATP. ADP-Glo assay monitors ADP producing biochemical reactions. ADP-Glo is performed in 2 steps upon completion of kinase reaction: a combined termination of kinase reaction and depletion of remaining ATP in the first step, and conversion of generated ADP to […] and the newly produced ATP to light output using luciferase/luciferin reaction in the second step. The luminescent signal generated is proportional to the ADP concentration produced and is correlated with the kinase activity CDK6/Cyclin D3 was purchased from Carna. […] The assay was initiated with the addition of ATP-containing substrate solution, following a 30-minute pre-incubation of enzyme and inhibitor at room temperature in the reaction mixture. The reaction was stopped after 90 minutes at room temperature by the addition of 10 uL of ADP-GLO Reagent. After a 90-minute incubation, 20 uL of Kinase Detection Reagent was added. Samples were incubated for 40 minutes, after which plate well luminescence was measured on a Envision microplate reader. The IC50 determinations were made from a plot of the fractional velocity as a function of inhibitor concentration fit to the 4 parameters IC50 equation.

MCF-7 cells = test: Cell Growth Inhibition, MCF-7 (CellTiterGlo, 6 days); format: cell-based; settings: Homo sapiens, MCF7, 144 h, MCF-7, 6-day treatment
Description: (§2) MCF-7 and OVCAR-3 cells were used to evaluate the anti-proliferation activity of the CDK inhibitors. MCF-7 (ATCC, HTB-22) cells are epithelial cells from a patient with ER+ metastatic adenocarcinoma. OVCAR-3 (ATCC, HTB-161) cells were derived from malignant ascites of a patient with ovarian cancer and are known to have CCNE1 amplification. Both cell lines were maintained in RPMI media supplemented with 10% fetal bovine serum. For cell growth inhibition assay, CDK inhibitors in DMSO solution were dispensed with either Echo 655 (Beckman Coulter) or Tecan D300e (HP) into 384-well plates (Corning #3765) and the 384-well plates were UV-sterilized prior to the assay. The inhibitors were typically tested in the 10-10,000 nM concentration range with half-log serial dilutions. MCF-7 or OVCAR-3 (500 cells/30 μL/well) were added to each well using Multidrop Combi (ThermoFisher) using standard cassettes. The assay plates with cells were cultured at 37° C., 5% CO2 for 6 days. At the end of the 6-day treatment, 30 μL of CellTiterGlo 2.0 (Promega) was added to each well and the luminescent signal was read using CLARIOstar plus (BMG). The percentage of cell growth inhibition (% CGI) was calculated using the following formula 00 CGI=100-100×luminescencesampie/luminescencecontroi. The half maximal inhibitory concentration (IC50) was determined by nonlinear curve fitting (four parameters, variable slope).

OVCAR-3 cells = test: Cell Growth Inhibition, OVCAR-3 (CellTiterGlo, 6 days); format: cell-based; settings: Homo sapiens, 144 h, OVCAR-3, 6-day treatment
Description: as §2

Chain of CDK1/Cyclin B1 (P06493 whole entry): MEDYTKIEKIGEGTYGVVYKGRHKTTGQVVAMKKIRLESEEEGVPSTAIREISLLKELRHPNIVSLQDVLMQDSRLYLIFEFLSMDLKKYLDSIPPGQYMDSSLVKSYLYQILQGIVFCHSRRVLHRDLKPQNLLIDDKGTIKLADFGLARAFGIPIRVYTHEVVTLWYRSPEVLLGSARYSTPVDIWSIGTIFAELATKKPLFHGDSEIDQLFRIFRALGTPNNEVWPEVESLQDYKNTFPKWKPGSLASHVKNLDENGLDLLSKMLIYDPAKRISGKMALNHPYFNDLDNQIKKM
Chain of CDK1/Cyclin B1 (P14635 whole entry partner): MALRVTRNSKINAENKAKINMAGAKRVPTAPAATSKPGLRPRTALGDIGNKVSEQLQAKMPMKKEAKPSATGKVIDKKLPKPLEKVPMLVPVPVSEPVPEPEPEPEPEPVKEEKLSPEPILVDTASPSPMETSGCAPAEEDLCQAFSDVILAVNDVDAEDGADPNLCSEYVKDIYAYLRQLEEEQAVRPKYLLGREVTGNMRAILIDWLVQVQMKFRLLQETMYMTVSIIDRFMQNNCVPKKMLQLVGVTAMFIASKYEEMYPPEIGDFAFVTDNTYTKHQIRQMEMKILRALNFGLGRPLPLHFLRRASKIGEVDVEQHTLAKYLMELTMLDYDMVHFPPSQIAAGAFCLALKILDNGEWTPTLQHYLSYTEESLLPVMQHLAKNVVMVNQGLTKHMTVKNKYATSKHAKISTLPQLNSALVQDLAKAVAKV
Chain of CDK6/Cyclin D3 (Q00534 whole entry): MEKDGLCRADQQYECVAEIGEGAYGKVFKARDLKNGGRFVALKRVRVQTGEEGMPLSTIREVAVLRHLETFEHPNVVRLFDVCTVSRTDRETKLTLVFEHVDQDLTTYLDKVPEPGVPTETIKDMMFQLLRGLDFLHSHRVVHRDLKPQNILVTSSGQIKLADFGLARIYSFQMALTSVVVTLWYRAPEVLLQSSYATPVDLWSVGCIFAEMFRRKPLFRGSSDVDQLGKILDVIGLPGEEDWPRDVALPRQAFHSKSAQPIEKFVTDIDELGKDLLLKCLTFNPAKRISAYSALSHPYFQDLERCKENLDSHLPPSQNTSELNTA
Chain of CDK6/Cyclin D3 (P30281 whole entry partner): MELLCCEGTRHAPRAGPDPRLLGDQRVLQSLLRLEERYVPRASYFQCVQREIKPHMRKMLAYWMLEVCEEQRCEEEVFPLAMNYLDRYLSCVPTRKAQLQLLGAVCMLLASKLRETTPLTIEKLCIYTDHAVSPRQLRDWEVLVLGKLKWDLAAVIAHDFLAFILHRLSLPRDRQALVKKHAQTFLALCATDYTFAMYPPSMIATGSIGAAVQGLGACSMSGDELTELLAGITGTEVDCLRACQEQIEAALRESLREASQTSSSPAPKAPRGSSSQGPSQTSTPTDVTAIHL
Chain of CDK4/Cyclin D1 (P11802 whole entry): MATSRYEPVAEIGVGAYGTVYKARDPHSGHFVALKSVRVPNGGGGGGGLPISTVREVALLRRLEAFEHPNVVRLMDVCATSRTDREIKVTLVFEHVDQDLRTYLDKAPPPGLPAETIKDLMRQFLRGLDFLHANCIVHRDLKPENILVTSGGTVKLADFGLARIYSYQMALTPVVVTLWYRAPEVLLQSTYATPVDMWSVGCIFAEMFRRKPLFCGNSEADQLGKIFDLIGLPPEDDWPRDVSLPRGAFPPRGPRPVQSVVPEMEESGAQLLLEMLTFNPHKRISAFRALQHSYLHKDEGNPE
Chain of CDK4/Cyclin D1 (P24385 whole entry partner): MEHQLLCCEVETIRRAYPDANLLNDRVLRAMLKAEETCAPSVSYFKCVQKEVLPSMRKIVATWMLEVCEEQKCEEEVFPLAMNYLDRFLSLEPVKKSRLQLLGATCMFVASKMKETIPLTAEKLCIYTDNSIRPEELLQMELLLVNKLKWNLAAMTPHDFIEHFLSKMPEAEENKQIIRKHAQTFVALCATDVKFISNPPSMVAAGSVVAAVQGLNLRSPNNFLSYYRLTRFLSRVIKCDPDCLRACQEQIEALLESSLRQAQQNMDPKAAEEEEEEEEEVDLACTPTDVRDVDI

| Structure (SMILES) | IC50 (CDK1/Cyclin B1) [nM] | IC50 (CDK2/Cyclin E1) [nM] | IC50 (CDK4/Cyclin D1) [nM] | IC50 (CDK6/Cyclin D3) [nM] | IC50 (MCF-7 cells) [nM] | IC50 (OVCAR-3 cells) [nM] |
| --- | --- | --- | --- | --- | --- | --- |
| [2H]C([2H])([2H])N1CC2(CN(c3nc(C)cc4cnc(NC5CCN(S(=O)(=O)C6CC6)CC5)nc34)CC2(F)F)C1 [Compound 13, N-(1-(cyclopropylsulfonyl)piperidin-4-yl)-8-(8,8-difluoro-2-(methyl-d3)-2,6-diazaspiro[3.4]octan-6-yl)-6-methylpyrido[3,4-d]pyrimidin-2-amine] | < 200 | < 200 | < 200 | < 200 | – | – |
| CS(=O)(=O)N1CCC(Nc2ncc3ccnc(N4C[C@H]5c6ccccc6S(=O)(=O)[C@H]5C4)c3n2)CC1 [Compound 16, (3aR,8bR)-2-(2-((1-(methylsulfonyl)piperidin-4-yl)amino)pyrido[3,4-d]pyrimidin-8-yl)-2,3,3a,8b-tetrahydro-1H-benzo[4,5]thieno[2,3-c]pyrrole 4,4-dioxide] | < 200 | – | – | – | 500 to 2000 | 500 to 2000 |
| Cc1cc2cnc(NC3CCN(S(C)(=O)=O)CC3)nc2c(N2CC3(C2)CN(C2CC2)C3)n1 [Compound 42, 8-(6-cyclopropyl-2,6-diazaspiro[3.3]heptan-2-yl)-6-methyl-N-(1-(methylsulfonyl)piperidin-4-yl)pyrido[3,4-d]pyrimidin-2-amine] | > 2000 | – | – | – | 500 to 2000 | 500 to 2000 |
| Cc1cc2cnc(NC3CCN(S(=O)(=O)C4CC4)CC3)nc2c(N2CC(C#N)(CCF)C2)n1 [Compound 68, 1-(2-((1-(cyclopropylsulfonyl)piperidin-4-yl)amino)-6-methylpyrido[3,4-d]pyrimidin-8-yl)-3-(2-fluoroethyl)azetidine-3-carbonitrile] | > 2000 | < 200 | 200 to 500 | 500 to 2000 | – | – |
| Cc1cc2cnc(NC3CCN(S(C)(=O)=O)CC3)nc2c(C2CC(C)(CO)C2)n1 (stereo not drawn) [Compound 69, (1-methyl-3-(6-methyl-2-((1-(methylsulfonyl)piperidin-4-yl)amino)pyrido[3,4-d]pyrimidin-8-yl)cyclobutyl)methanol] | < 200 | < 200 | < 200 | < 200 | – | – |
| Cc1cc2cnc(NC3CCN(S(C)(=O)=O)CC3)nc2c(N2CC3(CNC(=O)C3)C2)n1 [Compound 81, 2-(6-methyl-2-((1-(methylsulfonyl)piperidin-4-yl)amino)pyrido[3,4-d]pyrimidin-8-yl)-2,6-diazaspiro[3.4]octan-7-one] | 200 to 500 | < 200 | < 200 | 200 to 500 | – | – |
| Cc1cc2cnc(NC3CCN(S(C)(=O)=O)CC3)nc2c(N2CC3(CCC(=O)NC3)C2)n1 [Compound 82, 2-(6-methyl-2-((1-(methylsulfonyl)piperidin-4-yl)amino)pyrido[3,4-d]pyrimidin-8-yl)-2,6-diazaspiro[3.5]nonan-7-one] | 200 to 500 | < 200 | 200 to 500 | 200 to 500 | – | – |
| Cc1cc2cnc(NC3CCN(S(C)(=O)=O)CC3)nc2c(N2CC3(CNCC3F)C2)n1 (stereo not drawn) [Compound 98, 8-(8-fluoro-2,6-diazaspiro[3.4]octan-2-yl)-6-methyl-N-(1-(methylsulfonyl)piperidin-4-yl)pyrido[3,4-d]pyrimidin-2-amine] | 200 to 500 | < 200 | < 200 | 200 to 500 | – | – |
| Cc1cc2cnc(NC3CCN(S(C)(=O)=O)CC3)nc2c(C2CC3(CNCC3(F)F)C2)n1 (stereo not drawn) [Compound 99, 8-(8,8-difluoro-6-azaspiro[3.4]octan-2-yl)-6-methyl-N-(1-(methylsulfonyl)piperidin-4-yl)pyrido[3,4-d]pyrimidin-2-amine] | < 200 | < 200 | < 200 | < 200 | – | – |
| Cc1cc2cnc(NC3CCN(S(C)(=O)=O)CC3)nc2c(N2CC3(CNCC3C(F)F)C2)n1 (stereo not drawn) [Compound 100, 8-(8-(difluoromethyl)-2,6-diazaspiro[3.4]octan-2-yl)-6-methyl-N-(1-(methylsulfonyl)piperidin-4-yl)pyrido[3,4-d]pyrimidin-2-amine] | < 200 | < 200 | < 200 | < 200 | – | – |
| Cc1cc2cnc(NC3CCN(S(C)(=O)=O)CC3)nc2c(N2CC3(CN(C)C[C@@H]3F)C2)n1 [Compound 103, (R)-8-(8-fluoro-6-methyl-2,6-diazaspiro[3.4]octan-2-yl)-6-methyl-N-(1-(methylsulfonyl)piperidin-4-yl)pyrido[3,4-d]pyrimidin-2-amine] | – | – | < 200 | < 200 | – | – |
| Cc1cc2cnc(NC3CCN(S(C)(=O)=O)CC3)nc2c(N2CC3(CN(C)C[C@H]3F)C2)n1 [Compound 104, (S)-8-(8-fluoro-6-methyl-2,6-diazaspiro[3.4]octan-2-yl)-6-methyl-N-(1-(methylsulfonyl)piperidin-4-yl)pyrido[3,4-d]pyrimidin-2-amine] | – | – | < 200 | 200 to 500 | – | – |
